In patent US8592629B2, “Sulfonamide derivatives as Nav 1.7 inhibitors” (Pfizer Limited, priority 2010, dated 2013):

What follows are molecules tested against T1, Nav1.7 (or SCN9A) channel (Homo sapiens, UniProt Q15858) (assay: Nav1.7 (hSCN9A) block in HEK cells, PatchXpress 7000 automated electrophysiology, estimated IC50 (EIC50)). Conditions: PatchXpress assay; HEK cells stably transfected with hSCN9A, voltage-clamped at V1/2 of inactivation.
T1 construct: expressed in transfected cells
Format: cell-based
Protocol: The ability of the compounds of formula (I) to block the Nav1.7 (or SCN9A) channel were measured using the assay described below.
Human Embryonic Kidney (HEK) cells were transfected with an hSCN9A construct using lipofectamine reagent (Invitrogen), using standard techniques. Cells stably expressing the hSCN9A constructs were identified by their resistance to G-418 (400 μg/ml). Clones were screened for expression using the whole-cell voltage-clamp technique.
HEK cells stably transfected with hSCN9A were maintained in DMEM medium supplemented with 10% heat-inactivated fetal bovine serum and 400 μg/ml G-418 in an incubator at 37° C. with a humidified atmosphere of 10% CO2. For HTS, cells were harvested from flasks by trypsinization and replated in an appropriate multi-well plate (typically 96 or 384 wells/plate) such that confluence would be achieved within 24 hours of plating. For electrophysiological studies, cells were removed from the culture flask by brief trypsinization and re-plated at low density onto glass cover slips. Cells were typically used for electrophysiological experiments within 24 to 72 hours after plating.
HEK cells stably transfected with hSCN9A were viewed under Hoffman contrast optics and placed in front of an array of flow pipes emitting either control or compound-containing extracellular solutions. All compounds were dissolved in dimethyl sulfoxide to make 10 mM stock solutions, which were then diluted into extracellular solution to attain the final concentrations desired. […] The voltage-dependence of inactivation was determined by applying a series of depolarizing prepulses (8 sec long in 10 mV increments) from a negative holding potential. The voltage was then immediately stepped to 0 mV to assess the magnitude of the sodium current. Currents elicited at 0 mV were plotted as a function of prepulse potential to allow estimation of the voltage at which 50% of the channels were inactivated (midpoint of inactivation or V1/2). Compounds were tested for their ability to inhibit hSCN9A sodium channels by activating the channel with a 20 msec voltage step to 0 mV following an 8 second conditioning prepulse to the empirically determined V1/2. Compound effect (% inhibition) was determined by difference in current amplitude before and after application of test compounds. For ease of comparison, “estimated IC-50” (EIC50) values were calculated from single point electrophysiology data by the following equation, (tested concentration, uM) X (100-% inhibition/% inhibition). Inhibition values <20% and >80% were excluded from the calculation.
Electrophysiological assays were conducted with PatchXpress 7000 hardware and associated software (Molecular Devices Corp). All assay buffers and solutions were identical to those used in conventional whole-cell voltage clamp experiments described above. hSCN9A cells were grown as above to 50%-80% confluency and harvested by trypsinization. Trypsinized cells were washed and resuspended in extracellular buffer at a concentration of 1×10^6 cells/ml. The onboard liquid handling facility of the PatchXpress was used for dispensing cells and application of test compounds. Determination of the voltage midpoint of inactivation was as described for conventional whole-cell recordings. Cells were then voltage-clamped to the empirically determined V1/2 and current was activated by a 20 msec voltage step to 0 mV.
Compounds of the Examples were tested in the assays described above and found to have the Nav1.7 EIC50 (μM) values specified in the table below. All data are derived from the PatchXpress assay unless explicitly stated otherwise.

T1 sequence (Q15858 whole entry): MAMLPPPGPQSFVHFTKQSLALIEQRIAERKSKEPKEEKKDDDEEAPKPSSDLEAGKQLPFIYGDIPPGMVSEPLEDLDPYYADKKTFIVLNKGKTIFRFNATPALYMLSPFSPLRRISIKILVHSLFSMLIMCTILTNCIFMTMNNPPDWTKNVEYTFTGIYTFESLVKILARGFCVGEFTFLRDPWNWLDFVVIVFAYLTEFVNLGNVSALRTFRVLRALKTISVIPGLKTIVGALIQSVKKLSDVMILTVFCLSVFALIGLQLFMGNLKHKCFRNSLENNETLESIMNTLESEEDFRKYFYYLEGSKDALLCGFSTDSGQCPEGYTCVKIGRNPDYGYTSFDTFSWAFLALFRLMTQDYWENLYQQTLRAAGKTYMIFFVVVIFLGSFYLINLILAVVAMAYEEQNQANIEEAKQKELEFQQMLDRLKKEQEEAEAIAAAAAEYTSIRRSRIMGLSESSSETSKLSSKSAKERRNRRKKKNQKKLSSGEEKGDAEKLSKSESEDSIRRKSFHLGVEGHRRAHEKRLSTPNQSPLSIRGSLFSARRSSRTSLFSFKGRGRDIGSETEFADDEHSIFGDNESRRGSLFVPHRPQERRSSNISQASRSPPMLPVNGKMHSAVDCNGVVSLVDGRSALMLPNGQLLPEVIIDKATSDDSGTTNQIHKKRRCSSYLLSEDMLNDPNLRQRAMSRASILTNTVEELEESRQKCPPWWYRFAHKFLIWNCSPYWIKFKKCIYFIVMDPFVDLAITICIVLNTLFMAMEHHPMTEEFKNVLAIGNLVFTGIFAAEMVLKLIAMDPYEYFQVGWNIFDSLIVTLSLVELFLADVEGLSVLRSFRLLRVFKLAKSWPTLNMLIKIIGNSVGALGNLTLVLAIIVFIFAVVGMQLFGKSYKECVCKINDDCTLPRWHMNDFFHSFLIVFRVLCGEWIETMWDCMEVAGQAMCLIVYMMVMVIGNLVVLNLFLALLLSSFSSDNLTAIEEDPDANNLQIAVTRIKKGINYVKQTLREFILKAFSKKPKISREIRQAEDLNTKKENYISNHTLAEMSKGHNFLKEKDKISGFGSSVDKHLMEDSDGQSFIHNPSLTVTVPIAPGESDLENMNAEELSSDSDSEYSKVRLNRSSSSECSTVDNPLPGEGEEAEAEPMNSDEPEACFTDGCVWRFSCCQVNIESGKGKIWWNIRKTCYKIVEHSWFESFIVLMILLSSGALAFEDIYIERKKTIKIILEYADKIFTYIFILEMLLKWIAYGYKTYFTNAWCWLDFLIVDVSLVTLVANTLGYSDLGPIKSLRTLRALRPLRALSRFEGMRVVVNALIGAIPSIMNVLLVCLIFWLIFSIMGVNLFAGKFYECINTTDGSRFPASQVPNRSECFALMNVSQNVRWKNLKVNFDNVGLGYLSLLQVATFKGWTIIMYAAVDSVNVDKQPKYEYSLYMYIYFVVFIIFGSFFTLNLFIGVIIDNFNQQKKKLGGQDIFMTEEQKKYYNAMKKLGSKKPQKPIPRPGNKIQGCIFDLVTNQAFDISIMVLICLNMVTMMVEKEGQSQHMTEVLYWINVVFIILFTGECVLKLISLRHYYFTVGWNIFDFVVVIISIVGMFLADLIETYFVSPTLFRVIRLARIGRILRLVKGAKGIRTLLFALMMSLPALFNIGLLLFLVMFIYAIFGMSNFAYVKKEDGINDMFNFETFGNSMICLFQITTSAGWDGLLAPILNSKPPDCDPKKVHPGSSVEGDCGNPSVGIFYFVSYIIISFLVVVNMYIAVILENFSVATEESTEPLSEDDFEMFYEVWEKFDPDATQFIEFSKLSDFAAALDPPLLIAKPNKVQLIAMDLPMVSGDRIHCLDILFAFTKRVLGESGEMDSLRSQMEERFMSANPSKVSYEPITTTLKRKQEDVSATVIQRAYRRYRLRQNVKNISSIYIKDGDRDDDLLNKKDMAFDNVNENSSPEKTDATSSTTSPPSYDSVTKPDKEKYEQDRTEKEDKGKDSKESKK

Q: How did the IC50 turn out when CS(=O)(=O)NC(=O)c1ccc(Oc2cnc(N3CCCCC3)nc2)c(Cl)c1 [Example 4, 3-Chloro-N-(methylsulfonyl)-4-[(2-piperidin-1-ylpyrimidin-5-yl)oxy]benzamide] was run?
A: The IC50 was 0.3 µM.

Q: Which IC50 does the source give for CS(=O)(=O)NC(=O)c1cc(F)c(Oc2cnc(C(F)(F)F)c(Cl)c2)cc1F [Example 68, 4-{[5-chloro-6-(trifluoromethyl)pyridin-3-yl]oxy}-2,5-difluoro-N-(methylsulfonyl)benzamide] here?
A: The IC50 was 1.8 µM.

Q: For O=C(NS(=O)(=O)C1CC1)c1cc(Cl)c(Oc2cnc(C3CC3)c(Cl)c2)cc1F [Example 92, 5-chloro-4-(5-chloro-6-cyclopropylpyridin-3-yloxy)-N-(cyclopropylsulfonyl)-2-fluorobenzamide], which IC50 is on record?
A: Its IC50 is 0.05 µM.

Q: With CS(=O)(=O)NC(=O)c1cc(Cl)c(Oc2cnc(OC(F)F)c(Cl)c2)cc1F [Example 54, 5-chloro-4-{[5-chloro-6-(difluoromethoxy)pyridin-3-yl]oxy}-2-fluoro-N-(methylsulfonyl)benzamide] as the molecule, how does the IC50 read?
A: The IC50 was 0.18 µM.

Q: For CS(=O)(=O)NC(=O)c1cc(F)c(Oc2cccn3ccnc23)cc1F [Example 90, 2,5-difluoro-4-(imidazo[1,2-a]pyridin-8-yloxy)-N-(methylsulfonyl)benzamide], which IC50 is on record?
A: Its IC50 is > 3 µM.

Q: With CS(=O)(=O)NC(=O)c1ccc(Oc2cnc(C(F)(F)F)c(Cl)c2)cc1 [Example 9, 4-{[5-Chloro-6-(trifluoromethyl)pyridin-3-yl]oxy}-N-(methylsulfonyl)benzamide] as the molecule, how does the IC50 read?
A: The IC50 was > 1 µM.

Q: With CS(=O)(=O)NC(=O)c1cc(Cl)c(Oc2cnc(OCC(F)(F)C(F)F)c(Cl)c2)cc1F [Example 22, 5-chloro-4-{[5-chloro-6-(2,2,3,3-tetrafluoropropoxy)pyridin-3-yl]oxy}-2-fluoro-N-(methanesulfonyl)benzamide] as the molecule, how does the IC50 read?
A: Its IC50 is 0.019 µM.

Q: Which IC50 does the source give for COc1ncc(Oc2ccc(C(=O)NS(C)(=O)=O)cc2)cc1Cl [Example 85, 4-[(5-chloro-6-methoxypyridin-3-yl)oxy]-N-(methylsulfonyl)benzamide] here?
A: Its IC50 is > 10 µM.

Q: Which IC50 does the source give for CS(=O)(=O)NC(=O)c1cc(F)c(Oc2cnc(OCC(F)F)c(Cl)c2)cc1F [Example 66, 4-{[5-chloro-6-(2,2-difluoroethoxy)pyridin-3-yl]oxy}-2,5-difluoro-N-(methylsulfonyl)benzamide] here?
A: The IC50 was 0.65 µM.

Q: With COCCNc1ncc(Oc2cc(F)c(C(=O)NS(C)(=O)=O)cc2F)cc1Cl [Example 143, 4-({5-chloro-6-[(2-methoxyethyl)amino]pyridin-3-yl}oxy)-2,5-difluoro-N-(methylsulfonyl)benzamide] as the molecule, how does the IC50 read?
A: Its IC50 is > 1 µM.

Q: Which IC50 does the source give for COC1(C)CN(c2ncc(Oc3cc(F)c(C(=O)NS(C)(=O)=O)cc3F)cc2Cl)C1 [Example 125, 4-{[5-chloro-6-(3-methoxy-3-methylazetidin-1-yl)pyridin-3-yl]oxy}-2,5-difluoro-N-(methylsulfonyl)benzamide] here?
A: The IC50 was 0.96 µM.

Q: How did the IC50 turn out when CC(C)Oc1ncc(Oc2cc(F)c(C(=O)NS(C)(=O)=O)cc2F)cc1Cl [Example 3, 4-[(5-Chloro-6-isopropoxypyridin-3-yl)oxy]-2,5-difluoro-N-(methylsulfonyl)benzamide] was run?
A: Its IC50 is 0.041 µM.

Q: C[C@H](Oc1ncc(Oc2cc(F)c(C(=O)NS(C)(=O)=O)cc2Cl)cc1Cl)C(F)(F)F [Example 98, 5-chloro-4-({5-chloro-6-[(1S)-2,2,2-trifluoro-1-methylethoxy]pyridin-3-yl}oxy)-2-fluoro-N-(methylsulfonyl)benzamide] was tested. Which IC50 did it give?
A: Its IC50 is 0.012 µM.

Q: For CC(C)(F)c1ncc(Oc2cc(F)c(C(=O)NS(C)(=O)=O)cc2Cl)cc1Cl [Example 7, 5-Chloro-4-{[5-chloro-6-(1-fluoro-1-methylethyl)pyridin-3-yl]oxy}-2-fluoro-N-(methylsulfonyl)benzamide], which IC50 is on record?
A: Its IC50 is 0.29 µM.

Q: How did the IC50 turn out when CC(C)COc1ncc(Oc2cc(F)c(C(=O)NS(C)(=O)=O)cc2F)cc1Cl [Example 23, 4-[(5-chloro-6-isobutoxypyridin-3-yl)oxy]-2,5-difluoro-N-(methylsulfonyl)benzamide] was run?
A: The IC50 was 0.039 µM.

Q: CS(=O)(=O)NC(=O)c1cc(F)c(Oc2cnc(N[C@@H]3CCC[C@H]3F)c(Cl)c2)cc1F [Example 144, 4-[(5-chloro-6-{[(1R,2R)-2-fluorocyclopentyl]amino}pyridin-3-yl)oxy]-2,5-difluoro-N-(methylsulfonyl)benzamide] was tested. Which IC50 did it give?
A: The IC50 was 0.49 µM.

Q: Which IC50 does the source give for CC(C)Oc1ncc(Oc2cc(F)c(C(=O)NS(C)(=O)=O)cc2Cl)cc1Cl [Example 39, 5-chloro-4-[(5-chloro-6-isopropoxypyridin-3-yl)oxy]-2-fluoro-N-(methylsulfonyl)benzamide] here?
A: Its IC50 is 0.025 µM.

Q: CC(C)COc1ncc(Oc2ccc(C(=O)NS(C)(=O)=O)c(F)c2)cc1Cl [Example 74, 4-[(5-chloro-6-isobutoxypyridin-3-yl)oxy]-2-fluoro-N-(methylsulfonyl)benzamide] was tested. Which IC50 did it give?
A: Its IC50 is 0.05 µM.

Q: For CC(C)Cc1ncc(Oc2cc(F)c(C(=O)NS(C)(=O)=O)cc2F)cc1Cl [Example 49, 4-[(5-chloro-6-isobutylpyridin-3-yl)oxy]-2,5-difluoro-N-(methylsulfonyl)benzamide], which IC50 is on record?
A: The IC50 was 0.76 µM.

Q: For CC(C)(C)Oc1ncc(Oc2cc(F)c(C(=O)NS(C)(=O)=O)cc2Cl)cc1Cl [Example 101, 4-[(6-tert-butoxy-5-chloropyridin-3-yl)oxy]-5-chloro-2-fluoro-N-(methylsulfonyl)benzamide], which IC50 is on record?
A: The IC50 was 0.034 µM.

Q: How did the IC50 turn out when CS(=O)(=O)NC(=O)c1cc(F)c(Oc2cnc(OC3CCC3)c(Cl)c2)cc1F [Example 16, 4-(5-Chloro-6-cyclobutoxypyridin-3-yloxy)-2,5-difluoro-N-(methylsulfonyl)benzamide] was run?
A: Its IC50 is 0.13 µM.

Q: Which IC50 does the source give for CS(=O)(=O)NC(=O)c1cc(Cl)c(Oc2cnc(OCC(F)(F)C(F)F)c(C(F)(F)F)c2)cc1F [Example 105, 5-Chloro-2-fluoro-N-(methylsulfonyl)-4-(6-(2,2,3,3-tetrafluoropropoxy)-5-(trifluoromethyl)pyridin-3-yloxy)benzamide] here?
A: Its IC50 is 0.031 µM.

Q: How did the IC50 turn out when CC(C)Oc1ncc(Oc2ccc(C(=O)NS(C)(=O)=O)cc2F)cc1Cl [Example 33, 4-[(5-chloro-6-isopropoxypyridin-3-yl)oxy]-3-fluoro-N-(methylsulfonyl)benzamide] was run?
A: Its IC50 is 0.7 µM.

Q: CC(C)Oc1ncc(Sc2cc(F)c(C(=O)NS(C)(=O)=O)cc2Cl)cc1Cl [Example 94, 5-chloro-4-[(5-chloro-6-isopropoxypyridin-3-yl)thio]-2-fluoro-N-(methylsulfonyl)benzamide] was tested. Which IC50 did it give?
A: Its IC50 is 0.83 µM.

Q: With CCN(C)c1ncc(Oc2cc(F)c(C(=O)NS(C)(=O)=O)cc2F)cc1Cl [Example 117, 4-({5-chloro-6-[ethyl(methyl)amino]pyridin-3-yl}oxy)-2,5-difluoro-N-(methylsulfonyl)benzamide] as the molecule, how does the IC50 read?
A: Its IC50 is 0.9 µM.

Q: Which IC50 does the source give for COc1cc(C(=O)NS(C)(=O)=O)ccc1Oc1cnc(OC(C)C)c(Cl)c1 [Example 69, 4-[(5-chloro-6-isopropoxypyridin-3-yl)oxy]-3-methoxy-N-(methylsulfonyl)benzamide] here?
A: Its IC50 is 0.25 µM.

Q: CC(C)Oc1ccc(Oc2cc(F)c(C(=O)NS(C)(=O)=O)cc2F)cn1 [Example 47, 2,5-difluoro-4-[(6-isopropoxypyridin-3-yl)oxy]-N-(methylsulfonyl)benzamide] was tested. Which IC50 did it give?
A: The IC50 was 0.68 µM.

Q: How did the IC50 turn out when CC(C)COc1ncc(Oc2ccc(C(=O)NS(C)(=O)=O)cc2C#N)cc1Cl [Example 1, 4-[(5-Chloro-6-isobutoxypyridin-3-yl)oxy]-3-cyano-N-(methylsulfonyl)benzamide] was run?
A: The IC50 was 0.16 µM.

Q: How did the IC50 turn out when [2H]C(C)(C)Oc1ncc(Oc2cc(F)c(C(=O)NS(C)(=O)=O)cc2F)cc1Cl [Example 41, 4-({5-chloro-6-[2-d1-propan-2-yloxy]pyridin-3-yl}oxy)-2,5-difluoro-N-(methylsulfonyl)benzamide] was run?
A: Its IC50 is 0.19 µM.

Q: CN1CCCC(Nc2ncc(Oc3cc(F)c(C(=O)NS(C)(=O)=O)cc3F)cc2Cl)C1 (stereo not shown) [Example 127, 4-({5-chloro-6-[(1-methylpiperidin-3-yl)amino]pyridin-3-yl}oxy)-2,5-difluoro-N-(methylsulfonyl)benzamide] was tested. Which IC50 did it give?
A: The IC50 was > 1 µM.

Q: With CS(=O)(=O)NC(=O)c1cc(F)c(Oc2cnc(N3CCC(F)C3)c(Cl)c2)cc1F (stereo not shown) [Example 124, 4-{[5-chloro-6-(3-fluoropyrrolidin-1-yl)pyridin-3-yl]oxy}-2,5-difluoro-N-(methylsulfonyl)benzamide] as the molecule, how does the IC50 read?
A: Its IC50 is 0.64 µM.
